Results from PubChem BioAssay (NCI).
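Assay format: 96-well plates, 48-hour exposure. TGI is the concentration that stops growth completely.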

What was measured:
Experiment in all cases: inhibition of tumour cell growth, NCI panel, 48 h
HCT-15 colon = test system: HCT-15 colon
COLO 205 colon = test system: COLO 205 colon
MALME-3M melanoma = test system: MALME-3M melanoma
OVCAR-5 ovarian = test system: OVCAR-5 ovarian
786-0 renal = test system: 786-0 renal
UO-31 renal = test system: UO-31 renal
OVCAR-3 ovarian = test system: OVCAR-3 ovarian
SN12C renal = test system: SN12C renal
A498 renal = test system: A498 renal
HCT-116 colon = test system: HCT-116 colon
A549 NSCLC = test system: A549 NSCLC
DU-145 prostate = test system: DU-145 prostate
PC-3 prostate = test system: PC-3 prostate
CCRF-CEM leukemia = test system: CCRF-CEM leukemia
HOP-62 NSCLC = test system: HOP-62 NSCLC
U251 CNS = test system: U251 CNS
SF-295 CNS = test system: SF-295 CNS
HL-60(TB) leukemia = test system: HL-60(TB) leukemia
MDA-N = test system: MDA-N
SK-MEL-5 melanoma = test system: SK-MEL-5 melanoma
SW-620 colon = test system: SW-620 colon
EKVX NSCLC = test system: EKVX NSCLC
ACHN renal = test system: ACHN renal
MOLT-4 leukemia = test system: MOLT-4 leukemia
SK-OV-3 ovarian = test system: SK-OV-3 ovarian
MDA-MB-231 breast = test system: MDA-MB-231 breast
NCI-H522 lung = test system: NCI-H522 lung
OVCAR-8 ovarian = test system: OVCAR-8 ovarian
HS 578T breast = test system: HS 578T breast
HCC-2998 colon = test system: HCC-2998 colon
CAKI-1 renal = test system: CAKI-1 renal
BT-549 breast = test system: BT-549 breast
T-47D breast = test system: T-47D breast
SR leukemia = test system: SR leukemia
LOX IMVI melanoma = test system: LOX IMVI melanoma
UACC-257 melanoma = test system: UACC-257 melanoma
NCI-H226 lung = test system: NCI-H226 lung
SK-MEL-2 melanoma = test system: SK-MEL-2 melanoma
SF-539 CNS = test system: SF-539 CNS
SF-268 CNS = test system: SF-268 CNS
SNB-19 CNS = test system: SNB-19 CNS
RPMI-8226 leukemia = test system: RPMI-8226 leukemia
HOP-92 NSCLC = test system: HOP-92 NSCLC
IGROV1 ovarian = test system: IGROV1 ovarian
MDA-MB-435 = test system: MDA-MB-435
M14 melanoma = test system: M14 melanoma
HT29 colon = test system: HT29 colon
UACC-62 melanoma = test system: UACC-62 melanoma
SK-MEL-28 melanoma = test system: SK-MEL-28 melanoma
SNB-75 CNS = test system: SNB-75 CNS
K-562 leukemia = test system: K-562 leukemia
NCI/ADR-RES ovarian = test system: NCI/ADR-RES ovarian
MCF7 breast = test system: MCF7 breast
OVCAR-4 ovarian = test system: OVCAR-4 ovarian
KM12 colon = test system: KM12 colon
NCI-H23 lung = test system: NCI-H23 lung
NCI-H460 lung = test system: NCI-H460 lung

SMILES: C=CC(OC(=O)C(C)C)c1ccc(OC(=O)C(C)C)cc1 (configuration not stated)
- TGI (HCT-15 colon): 20.2 µM
- TGI (COLO 205 colon): 27.6 µM
- TGI (MALME-3M melanoma): 22 µM
- TGI (OVCAR-5 ovarian): 20.2 µM
- TGI (786-0 renal): 18.9 µM
- TGI (UO-31 renal): 30.9 µM
- TGI (OVCAR-3 ovarian): 31.1 µM
- TGI (SN12C renal): 30 µM
- TGI (A498 renal): 31.6 µM
- TGI (HCT-116 colon): 20.6 µM
- TGI (A549 NSCLC): 36.9 µM
- TGI (DU-145 prostate): > 100 µM
- TGI (PC-3 prostate): 21.9 µM
- TGI (CCRF-CEM leukemia): 10.7 µM
- TGI (HOP-62 NSCLC): 22.6 µM
- TGI (U251 CNS): 15.3 µM
- TGI (SF-295 CNS): 29.1 µM
- TGI (HL-60(TB) leukemia): 21 µM
- TGI (MDA-N): 25.9 µM
- TGI (SK-MEL-5 melanoma): 30.6 µM
- TGI (SW-620 colon): 20.7 µM
- TGI (EKVX NSCLC): 39.3 µM
- TGI (ACHN renal): 28 µM
- TGI (MOLT-4 leukemia): 49.7 µM
- TGI (SK-OV-3 ovarian): 34 µM
- TGI (MDA-MB-231 breast): 35.5 µM
- TGI (NCI-H522 lung): 3.56 µM
- TGI (OVCAR-8 ovarian): 31.4 µM
- TGI (HS 578T breast): > 100 µM
- TGI (HCC-2998 colon): 26.7 µM
- TGI (CAKI-1 renal): 10.2 µM
- TGI (BT-549 breast): 31.2 µM
- TGI (T-47D breast): 69.8 µM
- TGI (SR leukemia): > 100 µM
- TGI (LOX IMVI melanoma): 16.6 µM
- TGI (UACC-257 melanoma): 27.9 µM
- TGI (NCI-H226 lung): 39 µM
- TGI (SK-MEL-2 melanoma): 24 µM
- TGI (SF-539 CNS): 30.7 µM
- TGI (SF-268 CNS): 62.2 µM
- TGI (SNB-19 CNS): 28.2 µM
- TGI (RPMI-8226 leukemia): 11.7 µM
- TGI (HOP-92 NSCLC): 31.4 µM
- TGI (IGROV1 ovarian): 32.7 µM
- TGI (MDA-MB-435): 26.4 µM
- TGI (M14 melanoma): 21.4 µM
- TGI (HT29 colon): 26.3 µM
- TGI (UACC-62 melanoma): 31 µM
- TGI (SK-MEL-28 melanoma): 23.8 µM
- TGI (SNB-75 CNS): 28.6 µM
- TGI (K-562 leukemia): 66.6 µM
- TGI (NCI/ADR-RES ovarian): 54.8 µM
- TGI (MCF7 breast): 12.2 µM
- TGI (OVCAR-4 ovarian): 33.8 µM
- TGI (KM12 colon): 5.16 µM
- TGI (NCI-H23 lung): 51.4 µM
- TGI (NCI-H460 lung): 30.9 µM
